Assay results reported in ChEMBL document CHEMBL4765272, “Design, synthesis and biological evaluation of tyrosine derivatives as Mcl-1 inhibitors” (Eur J Med Chem, 2020).
Active and inactive are the calls of the source. The calls are words filed in the database; no cut-off is given here.

Tests used:
[1] = Inhibition of 5-FAM-BH3 peptide binding to N-terminal His8-tagged human MCL-1 (209 to 327 residues)/mouse MCL-1 (152 to 189 residues) expressed in Escherichia coli BL21 (DE3) by fluorescence polarization assay
[2] = biological target: Bcl-2-like protein 1 (Homo sapiens) (UniProt Q07817); test: Inhibition of 5-FAM-BH3 peptide binding to human N-terminal GST-tagged BCL-XL (1 to 212 residues) expressed in Escherichia coli BL21 (DE3) at 100 uM by fluorescence polarization assay relative to control
[3] = Inhibition of 5-FAM-BH3 peptide binding to human N-terminal GST-tagged BCL-2 (1 to 34 residues)/BCL-XL (29 to 44 residues)/BCL-2 isoform 2 (92 to 207 residues) expressed in Escherichia coli BL21 (DE3) by fluorescence polarization assay
[4] = Antiproliferative activity against human KM3 cells incubated for 72 hrs by MTT assay; format: functional, cell-based; conditions: KM3, 72 h
HepG2 [5] = test: Antiproliferative activity against human HepG2 cells incubated for 72 hrs by MTT assay; format: functional, cell-based; conditions: HepG2, 72 h
RPMI-8226 = test: Antiproliferative activity against human RPMI-8226 cells incubated for 72 hrs by MTT assay; format: functional, cell-based; conditions: RPMI-8226, 72 h
Jurkat = test: Antiproliferative activity against human Jurkat cells incubated for 72 hrs by MTT assay; format: functional, cell-based
MOLT-4 = test: Antiproliferative activity against human MOLT-4 cells incubated for 72 hrs by MTT assay; format: functional, cell-based; conditions: MOLT-4, 72 h
PC-3 = test: Antiproliferative activity against human PC-3 cells incubated for 72 hrs by MTT assay; format: functional, cell-based; conditions: PC-3, 72 h
NCI-H1299 = test: Antiproliferative activity against human NCI-H1299 cells incubated for 72 hrs by MTT assay; format: functional, cell-based; conditions: NCI-H1299, 72 h
[6] = Induction of apoptosis in human KM3 cells assessed as viable cells at 10 uM measured after 48 hrs by Annexin V-FITC/propidium iodide staining based flow cytometry (reference value: 96.24%); format: functional; conditions: read-out: Activity
[7] = Induction of apoptosis in human KM3 cells assessed as early apoptotic cells at 10 uM measured after 48 hrs by Annexin V-FITC/propidium iodide staining based flow cytometry (reference value: 2.18%); format: functional
[8] = Induction of apoptosis in human KM3 cells assessed as late apoptotic cells at 10 uM measured after 48 hrs by Annexin V-FITC/propidium iodide staining based flow cytometry (reference value: 1.15%); format: functional
[9] = Induction of apoptosis in human KM3 cells assessed as necrotic cells at 10 uM measured after 48 hrs by Annexin V-FITC/propidium iodide staining based flow cytometry (reference value: 0.42%); format: functional
[10] = Induction of apoptosis in human KM3 cells assessed as viable cells at 20 uM measured after 48 hrs by Annexin V-FITC/propidium iodide staining based flow cytometry (reference value: 96.24%); format: functional; conditions: read-out: Activity
[11] = Induction of apoptosis in human KM3 cells assessed as early apoptotic cells at 20 uM measured after 48 hrs by Annexin V-FITC/propidium iodide staining based flow cytometry (reference value: 2.18%); format: functional
[12] = Induction of apoptosis in human KM3 cells assessed as late apoptotic cells at 20 uM measured after 48 hrs by Annexin V-FITC/propidium iodide staining based flow cytometry (reference value: 1.15%); format: functional
[13] = Induction of apoptosis in human KM3 cells assessed as necrotic cells at 20 uM measured after 48 hrs by Annexin V-FITC/propidium iodide staining based flow cytometry (reference value: 0.42%); format: functional
HepG2 [14] = test: Induction of apoptosis in human HepG2 cells assessed as viable cells at 10 uM measured after 48 hrs by Annexin V-FITC/propidium iodide staining based flow cytometry (reference value: 96.84%); format: functional; conditions: read-out: Activity
HepG2 [15] = test: Induction of apoptosis in human HepG2 cells assessed as early apoptotic cells at 10 uM measured after 48 hrs by Annexin V-FITC/propidium iodide staining based flow cytometry (reference value: 0.71%); format: functional
HepG2 [16] = test: Induction of apoptosis in human HepG2 cells assessed as late apoptotic cells at 10 uM measured after 48 hrs by Annexin V-FITC/propidium iodide staining based flow cytometry (reference value: 1.93%); format: functional
HepG2 [17] = test: Induction of apoptosis in human HepG2 cells assessed as necrotic cells at 10 uM measured after 48 hrs by Annexin V-FITC/propidium iodide staining based flow cytometry (reference value: 0.52%); format: functional
HepG2 [18] = test: Induction of apoptosis in human HepG2 cells assessed as viable cells at 20 uM measured after 48 hrs by Annexin V-FITC/propidium iodide staining based flow cytometry (reference value: 96.84%); format: functional; conditions: read-out: Activity
HepG2 [19] = test: Induction of apoptosis in human HepG2 cells assessed as early apoptotic cells at 20 uM measured after 48 hrs by Annexin V-FITC/propidium iodide staining based flow cytometry (reference value: 0.71%); format: functional
HepG2 [20] = test: Induction of apoptosis in human HepG2 cells assessed as late apoptotic cells at 20 uM measured after 48 hrs by Annexin V-FITC/propidium iodide staining based flow cytometry (reference value: 1.93%); format: functional
HepG2 [21] = test: Induction of apoptosis in human HepG2 cells assessed as necrotic cells at 20 uM measured after 48 hrs by Annexin V-FITC/propidium iodide staining based flow cytometry (reference value: 0.52%); format: functional
HepG2 [22] = test: Induction of apoptosis in human HepG2 cells at 10 to 20 uM measured after 48 hrs by TUNEL staining based fluorescence microscopy; format: functional, cell-based; conditions: dose 10-20 µM
KM3 = test: Induction of apoptosis in human KM3 cells measured after 48 hrs by Annexin V-FITC/propidium iodide staining based flow cytometry; format: functional, cell-based
HepG2 [23] = test: Induction of apoptosis in human HepG2 cells measured after 48 hrs by Annexin V-FITC/propidium iodide staining based flow cytometry; format: functional, cell-based
HepG2 [24] = test: Induction of apoptosis in human HepG2 cells measured after 48 hrs by TUNEL staining based fluorescence microscopy; format: functional, cell-based
HepG2 [25] = test: Induction of apoptosis in human HepG2 cells transfected with siMcl-1 at 10 uM measured after 48 hrs by Annexin V-FITC/propidium iodide staining based flow cytometry; format: functional, cell-based
Homo sapiens = species: Homo sapiens; test: Inhibition of 5-FAM-BH3 peptide binding to human N-terminal GST-tagged BCL-2 (1 to 34 residues)/BCL-XL (29 to 44 residues)/BCL-2 isoform 2 (92 to 207 residues) expressed in Escherichia coli BL21 (DE3) at 100 uM by fluorescence polarization assay relative to control

Sequence of Bcl-2-like protein 1 (Homo sapiens) (Q07817 whole entry, the tested form may be a part, canonical isoform): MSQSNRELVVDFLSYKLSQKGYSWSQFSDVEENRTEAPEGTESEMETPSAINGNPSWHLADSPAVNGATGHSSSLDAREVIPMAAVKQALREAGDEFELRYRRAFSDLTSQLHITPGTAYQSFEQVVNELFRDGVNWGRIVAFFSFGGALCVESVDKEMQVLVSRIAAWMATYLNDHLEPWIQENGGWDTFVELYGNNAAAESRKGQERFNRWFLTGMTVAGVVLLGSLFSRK

| inhibition [2] [%] | IC50 (HepG2 [5]) [µM] | IC50 (RPMI-8226) [µM] | IC50 (Jurkat) [µM] | IC50 (MOLT-4) [µM] | IC50 (PC-3) [µM] | IC50 (NCI-H1299) [µM] | Compound | Ki [1] [µM] | IC50 [4] [µM] | viability at 10 µM [6] [%] | Activity [7] [%] | Activity [8] [%] | Activity [9] [%] | viability at 20 µM [10] [%] | Activity [11] [%] | Activity [12] [%] | Activity [13] [%] | viability at 10 µM (HepG2 [14]) [%] | Activity (HepG2 [15]) [%] | Activity (HepG2 [16]) [%] | further results |
| --- | --- | --- | --- | --- | --- | --- | --- | --- | --- | --- | --- | --- | --- | --- | --- | --- | --- | --- | --- | --- | --- |
| > 50 | 11.4 | 5.77 | 9.79 | 3.14 | 8.43 | 6.08 | O=C(O)CSc1cc(NS(=O)(=O)c2ccc(Br)cc2)c2ccccc2c1O | 0.21 | 11.2 | 72.7 | 15.35 | 11.64 | 0.31 | 23.8 | 40.5 | 34.2 | 1.52 | 76.4 | 2.23 | 20.03 | Ki [3]: 11 µM; Activity (HepG2 [17]): 1.36%; viability at 20 µM (HepG2 [18]): 11%; Activity (HepG2 [19]): 2.44%; Activity (HepG2 [20]): 86.11%; Activity (HepG2 [21]): 0.45%; Activity (HepG2 [22]): Active |
| > 50 | 6.42 | 6.34 | 15.1 | 17.4 | 15.8 | 20.7 | Cc1cc(OCCCOc2ccc(C[C@H](NC(=O)OC(C)(C)C)C(=O)NS(=O)(=O)c3ccc(NCCCc4ccccc4)c([N+](=O)[O-])c3)cc2)cc(C)c1Cl | 0.18 | 8.25 | 82.3 | 12.11 | 4.94 | 0.66 | 12.9 | 20.71 | 64.31 | 2.09 | 88.6 | 2.24 | 7.18 | Ki [3]: 1.1 µM; Activity (KM3): Dose-dependent effect; Activity (HepG2 [23]): Dose-dependent effect; Activity (HepG2 [17]): 2.02%; viability at 20 µM (HepG2 [18]): 15.4%; Activity (HepG2 [19]): 3.4%; Activity (HepG2 [20]): 78.54%; Activity (HepG2 [21]): 2.64%; Activity (HepG2 [24]): Dose-dependent effect; Activity (HepG2 [25]): inactive |
| > 50 | 7.5 | 7.67 | 16.5 | 17.7 | 18.9 | 21.6 | Cc1ccc(CC(=O)N[C@@H](Cc2cc(Br)c(OCCOc3cccc4ccccc34)c(Br)c2)C(=O)NS(=O)(=O)c2ccc(NCCCc3ccccc3)c([N+](=O)[O-])c2)cc1 | 0.23 | 11.5 | 84.5 | 10.47 | 4.31 | 0.73 | 8.34 | 16.21 | 74.52 | 0.93 | 85.9 | 2.44 | 9.03 | inhibition (Homo sapiens): > 50%; Activity (KM3): Dose-dependent effect; Activity (HepG2 [23]): Dose-dependent effect; Activity (HepG2 [17]): 2.63%; viability at 20 µM (HepG2 [18]): 15.6%; Activity (HepG2 [19]): 2.38%; Activity (HepG2 [20]): 80.03%; Activity (HepG2 [21]): 2.04%; Activity (HepG2 [24]): Dose-dependent effect; Activity (HepG2 [25]): inactive |
